Test results: patent publication US9403756B2, “N-phenyl anthranilic acid derivatives and uses thereof” (Ramot at Tel-Aviv University Ltd., priority 2007, dated 2016)
Entries after “also recorded” stand apart in the source; their conditions may differ. Like-named read-outs stand apart in the source and are kept apart here.

Key:
Kv7.2/3 channels = target: T1, Kv7.2/3 channels (Homo sapiens, UniProt O43525+O43526); assay: Kv7.2/3 channels coexpressed in CHO cells, whole-cell patch-clamp; assay type: cell-based; conditions: for Activity: M-channel modulation, Kv7.2 and Kv7.3 subunits coexpressed in CHO cells; for ΔV50 (mV): left-shift of the activation curve of Kv7.2/3 channels; for EC50: read-out: EC50
T1 construct: expressed in transfected cells; host or cells: CHO cells
Procedure: Chinese hamster ovary (CHO) cells were grown in Dulbecco's modified Eagle's medium (DMEM) supplemented with 2 mM glutamine, 10% fetal calf serum and antibiotics. Briefly, 40,000 cells seeded on poly-D-lysine-coated glass coverslips (13 mm diameter) in a 24-multiwell plate were transfected with pIRES-CD8 (0.5 μg) as a marker for transfection, and with Kv7.2 (0.5 μg) and Kv7.3 (0.5 μg) or TRPV1 […] or TRPV6 […].
For electrophysiology, transfected cells were visualized approximately 40 hours following transfection, using anti-CD8 antibody-coated beads. Transfection was performed using Fugene 6 (Roche, Indianapolis Ind., USA) according to the manufacturer's protocol.
Voltage-clamp recordings in CHO cells were performed, using the whole-cell configuration of the patch-clamp technique. Signals were amplified using an Axopatch 200B patch-clamp amplifier (Molecular Devices, Sunnyvale, Calif.), sampled at 2 kHz and filtered at 800 Hz via a 4-pole Bessel low pass filter. […] The patch pipettes were pulled from borosilicate glass (Warner Instrument Corp, USA) with a resistance of 2-5 MΩ. For K^+ current recordings in CHO cells, the intracellular pipette solution contained (in mM): 130 KCl, 1 MgCl2, 5 K2ATP, 5 EGTA, 10 HEPES, adjusted with KOH to pH 7.4 (290 mOsm). The extracellular solution contained (in mM): 140 NaCl, 4 KCl, 1.8 CaCl2, 1.2 MgCl2, 11 glucose, 5.5 HEPES, adjusted with NaOH to pH 7.4 (310 mOsm).
Data analysis was performed using the Clampfit program (pClamp 9.2, Molecular Devices), Microsoft Excel (Microsoft) and Prism 4.0 (GraphPad). Chord conductance (G) was calculated by using the following equation: G=I/(V−Vrev) where I corresponds to the current amplitude measured at the end of the pulse and Vrev, the calculated reversal potential. G was estimated at various test voltages V and then, normalized to a maximal conductance value, Gmax. Activation curves were fitted by one Boltzmann distribution: G/Gmax=1/{1+exp[(V50−V)/s]} where V50 is the voltage at which the current is half-activated and s is the slope factor. All data were expressed as mean±SEM. Statistically significant differences were assessed by Student's t-test. Analysis of sEPSCs and sIPSCs was done using the Clampfit program (pClamp 9.2, Molecular Devices) and included evaluation of the individual events as well as the average event amplitude and the integral of the event (total charge transfer).
In these studies, the impact of the compounds on M-channel activity was measured by the heterologous coexpression of Kv7.2 and Kv7.3 subunits in CHO cells.

[1] = system: maximal electroshock seizure model (MES) in ICR mice; assay: Maximal electroshock seizure test (MES); assay type: in vivo; conditions: 30 minutes before electroshock, data not shown
Procedure: The anti-convulsant effect was measured by the maximal electroshock seizure model (MES) in ICR mice as previously described. The procedures followed for experimentation and maintenance of the animals were approved by the animal research ethics committee of Tel Aviv University and in accordance with the Guide for the Care and Use of Laboratory Animals (1996, National Academy of Sciences, Washington D.C.). Briefly, maximal electroshock was induced in adult mice by means of two transcorneal electrodes delivering an alternative current of 50 mA at 60 Hz for 0.2 sec using rodent shocker (Hugo Sachs Electronik, type 221). […] The compounds, dissolved in 0.9% saline, were administered intraperitoneally 30 minutes before the electroshock was performed. Animals failing to show tonic hind limb extension were scored as protected and were expressed in percentage.

KCNQ2 mutant R207W = target: T2, KCNQ2 mutant R207W (Homo sapiens, UniProt O43526, R207W); assay type: cell-based
T2 construct: expressed in transfected cells; host or cells: CHO cells
Excerpt: FIGS. 10A-D present the potentiating effect of NH29, an exemplary channel opener compound according to embodiments of the present invention, on wild type KCNQ2 (FIGS. 10A and 10B) and R207W mutant (FIGS. 10C and 10D) channels, as expressed in activation curve measurements, showing that NH29 left-shifts the activation curve (ΔV50) by −15.5 mV and −5.5 mV in the case of the wild-type and the mutant, respectively, and showing that NH29 enhances the current of wild-type and the mutant by about 3.4-fold (at −40 mV) and 1.5-fold (at −20 mV), respectively.
FIGS. 11A-F present the potentiating effect of NH29, an exemplary channel opener compound according to embodiments of the present invention, and Retigabine, on KCNQ2 mutants R207W and W236L mutant. Shown are representative traces recorded from CHO cell transfected with the KCNQ2 mutant R207W 0, 1 and 4-4.5 minutes after external application of 25 μM of NH29 and wherein the membrane potential was stepped from −90 mV holding potential to −20 mV for 1.5 seconds pulse duration (FIG. 11A), or 0, 1 and 4 minutes after external application of 25 μM of Retigabine wherein the membrane potential was stepped from −90 mV holding potential to −40 mV for 1.5 seconds pulse duration (FIG. 11B). FIGS. 11C and 11D show representative traces recorded from CHO cells transfected with the KCNQ2 mutant W236L 0, 1 and 6 minutes after external application of 25 μM of NH29 (FIG. 11C) or 0 and 5 minutes after external application of 10 μM of Retigabine (FIG. 11D) and wherein the membrane potential was stepped from −90 mV holding potential to −40 mV for 1.5 seconds pulse duration. FIG. 11E presents superimposed traces, showing the effects of Retigabine (RTG) and NH29 on the channel activity of KCNQ2 mutant W236L as measured at −40 mV; and FIG. 11F presents a bar diagram comparing the potentiating effect of NH29 and Retigabine on native KCNQ2 and KCNQ2 mutants, wherein the opener effect is expressed as percent of the control current in the absence of the opener.
Voltage-clamp recordings in CHO cells were performed, using the whole-cell configuration of the patch-clamp technique. Signals were amplified using an Axopatch 200B patch-clamp amplifier (Molecular Devices, Sunnyvale, Calif.), sampled at 2 kHz and filtered at 800 Hz via a 4-pole Bessel low pass filter. Data were acquired using pClamp 9.2 software (Molecular Devices) and an IBM compatible Pentium IV computer in conjunction with a DigiData 1322A interface (Molecular Devices). The patch pipettes were pulled from borosilicate glass (Warner Instrument Corp, USA) with a resistance of 2-5 MΩ. For K^+ current recordings in CHO cells, the intracellular pipette solution contained (in mM): 130 KCl, 1 MgCl2, 5 K2ATP, 5 EGTA, 10 HEPES, adjusted with KOH to pH 7.4 (290 mOsm). The extracellular solution contained (in mM): 140 NaCl, 4 KCl, 1.8 CaCl2, 1.2 MgCl2, 11 glucose, 5.5 HEPES, adjusted with NaOH to pH 7.4 (310 mOsm). Series resistances (3-13 MΩ) were compensated (75-90%) and periodically monitored.

COX = assay: Anti-COX activity in cell culture, CT26 and D122 cell lines (results in words); assay type: cell-based, mouse; conditions: COX-dependent synthesis of PGE2
Procedure: Mouse colon adenocarcinoma CT26 and mouse lewis lung carcinoma D122 cells were grown in DMEM (D122) or RPMI (CT26) supplemented with 10% fetal calf serum, 4% glutamine, 1% penicillin-streptomycin-nystatin and 3% non essential amino acids (D122) and were kept in a humidified 37° C. incubator with 5% CO2. For the COX activity assays, cells were grown onto 24 multi-well plates.
Before the assay, cells were washed with serum-free medium; then the tested compounds were added to the medium and incubated for 30 minutes at 37° C. after which 30 μM arachidonic acid were added and incubated for additional 20 minutes. At the end of the incubation period, 10 μM Indomethacin were added to stop the reaction and medium was transferred to another 24 multi-well plate for measuring PGE2 production by radioimmunoassay (DuPont-NEN; Boston Mass.) according to manufacturer protocol. Protein determination was assayed on scraped cells using the Bradford method (1976) [Bradford M. M. 1976. Anal. Biochem. 72:248-254], with BSA as a standard and was used to normalize the amount of PGE2 production.
The anti-COX activity of NH25, NH29 and NH30 was examined in Mouse colon adenocarcinoma CT26 and mouse lewis lung carcinoma D122 cell lines. Cells were incubated with each of the tested compounds and the level of the COX-dependent synthesis of PGE2 was quantified using radioimmunoassay techniques.

[2] = opener potency, concentration-dependent left-shift in half-activation potential ΔV50, sigmoidal fit
[3] = compounds whose Activity is Blocker

T2 sequence (O43526 whole entry R207W): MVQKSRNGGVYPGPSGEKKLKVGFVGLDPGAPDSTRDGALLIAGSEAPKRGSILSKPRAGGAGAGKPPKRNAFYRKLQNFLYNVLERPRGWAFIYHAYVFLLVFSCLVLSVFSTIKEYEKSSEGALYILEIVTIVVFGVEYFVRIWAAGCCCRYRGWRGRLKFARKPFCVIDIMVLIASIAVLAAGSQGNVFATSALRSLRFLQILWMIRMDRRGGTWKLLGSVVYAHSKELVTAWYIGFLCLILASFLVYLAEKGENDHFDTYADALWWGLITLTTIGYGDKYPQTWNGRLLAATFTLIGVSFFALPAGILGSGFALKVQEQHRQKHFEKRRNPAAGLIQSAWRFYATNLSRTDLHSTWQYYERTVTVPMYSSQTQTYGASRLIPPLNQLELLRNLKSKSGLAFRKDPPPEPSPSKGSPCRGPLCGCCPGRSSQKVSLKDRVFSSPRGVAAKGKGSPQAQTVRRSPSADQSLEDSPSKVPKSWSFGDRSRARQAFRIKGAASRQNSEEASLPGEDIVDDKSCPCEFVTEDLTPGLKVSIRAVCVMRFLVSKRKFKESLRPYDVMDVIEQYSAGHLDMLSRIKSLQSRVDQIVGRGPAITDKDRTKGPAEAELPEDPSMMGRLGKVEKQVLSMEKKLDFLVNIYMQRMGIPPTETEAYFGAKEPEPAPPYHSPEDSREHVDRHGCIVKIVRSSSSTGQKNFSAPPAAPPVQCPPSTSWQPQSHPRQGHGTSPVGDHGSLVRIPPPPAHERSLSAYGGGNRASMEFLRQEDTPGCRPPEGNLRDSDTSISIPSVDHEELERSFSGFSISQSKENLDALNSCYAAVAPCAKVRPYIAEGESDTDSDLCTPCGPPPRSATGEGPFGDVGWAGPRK

Row | Compound | Activity (Kv7.2/3 channels) | also measured
1 | Cc1c(Cl)cccc1Nc1ccccc1C(=O)O [tolfenamate, reference compound] | potent M-channel openers | –
2 | O=C(O)c1ccccc1Nc1cccc(C(F)(F)F)c1 [flufenamate, reference compound] | potent M-channel openers | –
3 | Cc1cccc(Nc2ccccc2C(=O)O)c1C [mefenamate, reference compound] | potent M-channel openers | –
4 | CCCC(CCC)C(=O)[O-].[Na+] [sodium valproate] | – | protection in MES ([1]; 500 mg/kg intraperitoneal): fully prevented hind limb extension
5 | CC(C)COC(=O)Cc1ccccc1Nc1c(Cl)cccc1Cl [NH9] | potent M-channel blockers; also recorded: Blocker | EC50 (Kv7.2/3 channels; [3]): 50 µM
6 | COc1ccc2cc([C@H](C)C(=O)O)ccc2c1 [naproxen, reference compound] | do not activate Kv7.2/3 channels | –
7 | Zinc pyrithione [reference compound] | – | activation of S4 mutant R207W (KCNQ2 mutant R207W): activate very potently
8 | O=C1NC(=O)C(c2ccccc2)(c2ccccc2)N1 [phenyloin] | – | protection in MES ([1]; 20 mg/kg intraperitoneal): fully prevented hind limb extension
9 | CC(C(=O)O)c1cccc(Oc2ccccc2)c1 (stereo not shown) [fenoprofen, reference compound] | do not activate Kv7.2/3 channels | –
10 | O=C(Cc1cc([N+](=O)[O-])ccc1Nc1c(Cl)cc([N+](=O)[O-])cc1Cl)NCCO [NH28] | Opener | –
11 | O=C(O)Cc1ccccc1Nc1c(Cl)cccc1Cl [Diclofenac, reference compound] | Opener | EC50 (Kv7.2/3 channels; [2]): 2.6 µM
12 | O=C(Cc1ccccc1Nc1c(Cl)cccc1Cl)OCC1CO1 (stereo not shown) [NH21] | potent M-channel blockers; also recorded: Blocker | EC50 (Kv7.2/3 channels; [3]): 100 µM
13 | Cc1ccc(Cl)c(Nc2ccccc2C(=O)O)c1Cl [Meclofenamic, Meclofenamic acid, reference compound] | Opener | ΔV50 (mV) (Kv7.2/3 channels): −22.7 mV; EC50 (Kv7.2/3 channels; [2]): 25 µM
14 | CC(C(=O)O)c1ccc(-c2ccccc2)c(F)c1 (stereo not shown) [flurbiprofen, reference compound] | do not activate Kv7.2/3 channels | –

Continued, in another order:

Row | Activity (Kv7.2/3 channels) | Compound | also measured
15 | Opener | Cc1c(Cl)cccc1Nc1ccccc1C(=O)NCCOCCO [NH18] | ΔV50 (mV) (Kv7.2/3 channels): −3.7 mV; EC50 (Kv7.2/3 channels; [2]): 6 µM
16 | Opener | O=C(NCCOCCO)c1ccccc1Nc1cccc(C(F)(F)F)c1 [NH16] | ΔV50 (mV) (Kv7.2/3 channels): −5.5 mV; EC50 (Kv7.2/3 channels; [2]): 9 µM
17 | Opener | O=C(O)Cc1cc([N+](=O)[O-])ccc1Nc1c(Cl)cccc1Cl [NH24] | –
18 | Opener | O=C(Cc1ccccc1Nc1c(Cl)cccc1Cl)OCCO [NH7] | ΔV50 (mV) (Kv7.2/3 channels): −4.1 mV
19 | totally inactive | Cc1c(Cl)cccc1Nc1ccccc1C(=O)OCC(C)C [NH10] | –
20 | Opener | O=C(Cc1cc([N+](=O)[O-])ccc1Nc1c(Cl)cccc1Cl)NCCO [NH30] | anti-COX activity (COX): did not exhibit anti-COX activity; ΔV50 (mV) (Kv7.2/3 channels): −12.2 mV; EC50 (Kv7.2/3 channels; [2]): 17 µM
21 | Opener | CN(CCO)C(=O)Cc1ccccc1Nc1c(Cl)cccc1Cl [NH5] | –
22 | Opener | O=C(Cc1ccccc1Nc1c(Cl)cccc1Cl)NCCOCCO [NH14] | ΔV50 (mV) (Kv7.2/3 channels): −12.6 mV
23 | Opener | O=C(Cc1ccccc1Nc1c(Cl)cccc1Cl)NCCO [NH27] | –
24 | totally inactive | COCCOCCOC(=O)Cc1ccccc1Nc1c(Cl)cccc1Cl [NH13] | –
25 | totally inactive | COCCOCCOCCOCCOC(=O)Cc1ccccc1Nc1c(Cl)cccc1Cl [NH8] | –
26 | totally inactive | CC(C)COC(=O)c1ccccc1Nc1cccc(C(F)(F)F)c1 [NH11] | –
27 | Opener | O=C(Cc1ccccc1Nc1c(Cl)cccc1Cl)OCCOCCO [NH6] | ΔV50 (mV) (Kv7.2/3 channels): −18.7 mV; EC50 (Kv7.2/3 channels; [2]): 18 µM
28 | Opener | Cc1cccc(Nc2ccccc2C(=O)NCCOCCO)c1C [NH15] | ΔV50 (mV) (Kv7.2/3 channels): −8.4 mV; EC50 (Kv7.2/3 channels; [2]): 3 µM
